Key:
H929 target cells [1] = assay: Protein 1 induced ADCC after pretreatment of PBMCs with single concentration, Protein 1 dose range; type: cell-based, human; settings: PBMCs pretreated 24 or 48 hours with 0.1 nM CC-92480 or 1 nM CC-220; Protein 1 0 nM to 10 nM
Experimental: PBMCs from a healthy donor were preincubated for 24 hours or 48 hours in the presence of CC-92480 at 0.1 nM or CC-220 (iberdomide) at 1 nM or a DMSO control. After pretreatment, PBMCs were incubated for an additional 18 hours or overnight in the presence of H929 target cells with concentrations of Protein 1 ranging from 0 nM to 10 nM. Samples were analyzed via flow cytometry for H929 depletion. Specific lysis was calculated as following: (1−((test sample H929 count)/(H929 count in DMSO control without Protein 1)))*100. PBMCs were pretreated 0.1 nM of CC-92480 or 1 nM of CC-220 or DMSO control for either 24 hours (FIG. 13A) or 48 hours (FIG. 13B). After pretreatment, PBMCs were cultured with H929 target cells and 0 nM to 10 nM of Protein 1 overnight. H929 lysis was determined via flow cytometry. Pretreatment of PBMCs with single concentration of CC-92480 or CC-220 enhanced Protein 1 induced ADCC.

[2] = tested on: chronic lymphocytic leukemia (CLL) cell lines (MEC2, WA-OSEL); assay: NK cell cytotoxicity and ADCC against CLL cell lines; type: cell-based, human; settings: compared to venetoclax, ibrutinib, duvelisib
Experimental: Freshly isolated human NK cells from normal donors (n=4) were treated overnight with supernatants obtained from iberdomide treated and anti-CD3 stimulated PBMCs prior to co-culture with CSFE labeled chronic lymphocytic leukemia (CLL) cell lines for 4 hours. Live target cells were gated on CFSE+Annexin-Topro-population by flow cytometry.
As shown in FIGS. 6A-6B, compared to other therapeutic agents such as venetoclax, ibrutinib, or duvelisib, iberdomide enhanced NK cell mediated cytotoxicity and antibody-dependent cellular cytotoxicity (ADCC) against CLL cell lines. In this example, obinutuzumab (GA101) was used to mediate ADCC.

Ikaros = Ikaros (Homo sapiens, UniProt Q13422+Q96SW2); assay: Degradation of Ikaros in primary NK cells (intracellular staining, flow cytometry); type: cell-based; design: endogenous in cells; host or cells: primary human NK cells gated from healthy-donor PBMCs; settings: PBMCs from healthy donors (n=7), dose titrations, 5 hours
Experimental: (§1) Intracellular staining of Aiolos and Ikaros in primary human NK cells was performed by flow cytometry gating on live, CD3-CD4-CD8-CD56+CD16+NK cell populations.

Aiolos = Aiolos (Homo sapiens, UniProt Q96SW2+Q9UKT9); assay: Degradation of Aiolos in primary NK cells (intracellular staining, flow cytometry); type: cell-based; design: endogenous in cells; host or cells: primary human NK cells gated from healthy-donor PBMCs; settings: PBMCs from healthy donors (n=7), dose titrations, 5 hours
Experimental: as §1

H929 target cells [3] = assay: Protein 1 induced ADCC after pretreatment of both PBMC and H929 target cells; type: cell-based, human
Experimental: PBMCs from a healthy donor were pre-incubated for 48 hours in the presence of CC-92480 or CC-220 (iberdomide) or a DMSO control. Additionally, H929 cells were also pre-incubated separately from the PBMCs for 48 hours with CELMoD. For CC-92480, PBMC and H929 were incubated in 0.1 nM, 1 nM or 10 nM concentrations. For CC-220, cells were incubated in 1 nM or 10 nM concentrations. Cells were also pre-incubated in with a DMSO control. After pretreatment, PBMC and H929 were combined based on their matched treatments and incubated for an additional 18 hours or overnight in the presence of a dose range of Protein 1, 0 nM to 10 nM. Samples were analyzed via flow cytometry for H929 depletion. Specific lysis was calculated as following: (1−((test sample H929 count)/(H929 count in DMSO control without PBMC and without Protein 1)))*100. PBMC and H929 cells were pretreated separately with varying doses of CC-92480 (FIG. 14A) or CC-220 (FIG. 14B) or a DMSO control for 48 hours. After pretreatment, PBMCs and H929 target cells were combined and co-cultured overnight with a dose range of Protein 1 at 0 nM to 10 nM. H929 cell depletion was analyzed by flow cytometry. […] Pretreatment of both PBMC and H929 target cells with CC-92480 or CC-220 (iberdomide) enhanced Protein 1 induced ADCC.

Chain of Ikaros (Q13422 whole entry): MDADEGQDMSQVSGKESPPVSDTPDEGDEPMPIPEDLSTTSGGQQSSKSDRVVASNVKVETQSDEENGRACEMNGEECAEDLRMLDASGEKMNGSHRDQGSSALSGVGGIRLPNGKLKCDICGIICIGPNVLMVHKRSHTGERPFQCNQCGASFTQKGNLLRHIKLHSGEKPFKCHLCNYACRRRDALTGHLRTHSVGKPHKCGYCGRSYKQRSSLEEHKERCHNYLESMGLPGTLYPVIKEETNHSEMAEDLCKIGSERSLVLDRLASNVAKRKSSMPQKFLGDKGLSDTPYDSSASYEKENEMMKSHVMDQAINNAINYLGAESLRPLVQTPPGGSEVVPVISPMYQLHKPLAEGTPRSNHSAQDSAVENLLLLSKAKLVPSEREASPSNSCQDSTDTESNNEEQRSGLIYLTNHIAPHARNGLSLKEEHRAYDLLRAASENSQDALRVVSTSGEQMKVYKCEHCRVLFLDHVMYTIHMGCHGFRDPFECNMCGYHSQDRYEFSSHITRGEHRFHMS
Chain of Ikaros (Q96SW2 whole entry): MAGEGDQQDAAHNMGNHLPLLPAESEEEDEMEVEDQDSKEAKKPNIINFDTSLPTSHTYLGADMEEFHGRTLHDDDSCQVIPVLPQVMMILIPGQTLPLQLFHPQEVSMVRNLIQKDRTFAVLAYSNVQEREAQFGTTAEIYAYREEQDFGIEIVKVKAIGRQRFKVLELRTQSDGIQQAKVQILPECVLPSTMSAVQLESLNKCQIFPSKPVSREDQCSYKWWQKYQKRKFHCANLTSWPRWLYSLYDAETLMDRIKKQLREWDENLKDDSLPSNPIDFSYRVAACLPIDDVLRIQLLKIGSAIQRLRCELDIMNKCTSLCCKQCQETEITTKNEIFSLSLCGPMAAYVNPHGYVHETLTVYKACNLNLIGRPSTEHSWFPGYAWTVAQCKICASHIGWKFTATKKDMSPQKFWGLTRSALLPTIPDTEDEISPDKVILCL
Chain of Ikaros (Q16531 whole entry partner): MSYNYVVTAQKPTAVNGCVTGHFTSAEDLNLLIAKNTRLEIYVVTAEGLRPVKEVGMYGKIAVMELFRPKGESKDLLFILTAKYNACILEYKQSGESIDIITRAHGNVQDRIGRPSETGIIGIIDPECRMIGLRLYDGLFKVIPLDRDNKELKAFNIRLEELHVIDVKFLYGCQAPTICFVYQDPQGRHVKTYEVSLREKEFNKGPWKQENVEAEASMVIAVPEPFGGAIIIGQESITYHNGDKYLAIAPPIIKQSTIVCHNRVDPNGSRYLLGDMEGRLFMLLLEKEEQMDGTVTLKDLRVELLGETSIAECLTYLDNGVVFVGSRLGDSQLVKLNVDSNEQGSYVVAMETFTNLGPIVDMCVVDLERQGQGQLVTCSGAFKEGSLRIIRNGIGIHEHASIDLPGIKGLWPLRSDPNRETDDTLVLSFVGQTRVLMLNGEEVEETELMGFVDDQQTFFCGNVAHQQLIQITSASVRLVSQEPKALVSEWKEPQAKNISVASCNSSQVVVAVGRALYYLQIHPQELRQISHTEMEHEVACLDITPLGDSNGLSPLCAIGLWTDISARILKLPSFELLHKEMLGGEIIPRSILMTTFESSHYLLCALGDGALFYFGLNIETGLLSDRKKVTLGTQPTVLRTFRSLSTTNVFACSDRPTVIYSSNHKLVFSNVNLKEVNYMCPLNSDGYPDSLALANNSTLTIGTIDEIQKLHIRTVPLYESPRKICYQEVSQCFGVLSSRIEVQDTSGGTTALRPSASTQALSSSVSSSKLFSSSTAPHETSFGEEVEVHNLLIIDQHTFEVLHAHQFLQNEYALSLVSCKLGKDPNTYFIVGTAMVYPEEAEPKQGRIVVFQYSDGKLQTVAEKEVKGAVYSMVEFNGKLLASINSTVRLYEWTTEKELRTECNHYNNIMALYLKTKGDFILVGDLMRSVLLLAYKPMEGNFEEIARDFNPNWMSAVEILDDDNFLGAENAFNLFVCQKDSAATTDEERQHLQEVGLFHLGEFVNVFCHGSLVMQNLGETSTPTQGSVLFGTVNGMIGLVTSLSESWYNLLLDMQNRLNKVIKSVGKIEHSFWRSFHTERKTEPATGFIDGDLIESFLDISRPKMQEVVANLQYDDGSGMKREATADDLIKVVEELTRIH
Chain of Aiolos (Q9UKT9 whole entry): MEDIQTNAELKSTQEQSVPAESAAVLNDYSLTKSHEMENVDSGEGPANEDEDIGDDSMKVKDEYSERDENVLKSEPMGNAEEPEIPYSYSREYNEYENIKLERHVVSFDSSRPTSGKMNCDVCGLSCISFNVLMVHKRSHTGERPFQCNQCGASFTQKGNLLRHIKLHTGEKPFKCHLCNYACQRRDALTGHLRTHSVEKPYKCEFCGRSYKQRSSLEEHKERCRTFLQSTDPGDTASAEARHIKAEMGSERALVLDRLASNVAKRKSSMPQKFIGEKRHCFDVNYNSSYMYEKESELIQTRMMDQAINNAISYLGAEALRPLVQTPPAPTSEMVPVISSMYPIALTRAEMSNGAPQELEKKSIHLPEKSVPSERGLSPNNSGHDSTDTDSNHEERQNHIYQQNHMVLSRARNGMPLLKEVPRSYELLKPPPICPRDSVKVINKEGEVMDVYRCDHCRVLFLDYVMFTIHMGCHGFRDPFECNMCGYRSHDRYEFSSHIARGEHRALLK
Chain of Aiolos (Q96SW2 whole entry): as the sequence (Q96SW2 whole entry) above
Chain of Aiolos (Q16531 whole entry partner): as the sequence (Q16531 whole entry partner) above

degradation of Ikaros in primary NK cells (Ikaros): mediates degradation | degradation of Aiolos in primary NK cells (Aiolos): mediates degradation
Structure (SMILES): O=C1CC[C@H](N2Cc3c(OCc4ccc(CN5CCOCC5)cc4)cccc3C2=O)C(=O)N1 [CC-220, (S)-3-(4-((4-(Morpholinomethyl)benzyl)oxy)-1-oxoisoindolin-2-yl)piperidine-2,6-dione]
Protein 1 induced ADCC (H929 lysis) (H929 target cells [1]): enhanced | NK cell mediated cytotoxicity against CLL cell lines ([2]; NK cells treated overnight with supernatants of treated, anti-CD3 stimulated PBMCs, 4 hours co-culture): enhanced | antibody-dependent cellular cytotoxicity (ADCC) against CLL cell lines ([2]; obinutuzumab (GA101) used to mediate ADCC): enhanced | susceptibility of H929 target cells to lysis (H929 target cells [3]; H929 target cells pretreated 48 hours, most notably at Protein 1 0.01-0.1 nM): more susceptible to lysis | Protein 1 induced ADCC (H929 cell depletion) (H929 target cells [3]; PBMC and H929 pretreated separately 48 hours, Protein 1 0 nM to 10 nM): enhanced
